The text below walks through data of article PMC4257560, “Synthesis and Functional Characterization of Substituted Isoquinolinones as MT2-Selective Melatoninergic Ligands” (PLoS ONE, 2014).

Read-outs that look alike come from different tables or passages of the source.

For data set [1], the target named is T1, MT1 (Homo sapiens, UniProt P48039). The data set is described as follows: Immunodetection of ERK phosphorylation in MT1-CHO cells. Also on record: expressed in transfected cells. Type of data set: cell-based. The procedure:
(§1) CHO cells expressing MT1 or MT2 were serum-starved before treating with the indicated concentrations of melatonin or individual tested compounds. Resolved proteins were electrotransferred for immunodetection using phosphorylated ERK-specific antibody.
(§2) (A) CHO cells expressing MT1 or MT2 were treated with the indicated concentrations of 7e or luzindole in the absence or presence of a fixed concentration of melatonin (MLT) (for both MT1 or MT2) or 7b (for MT2 only). Other experimental details were as to the legend of Figure 5. Data shown were representative blots of three separate trials. (B) CHO cells expressing MT2 were treated with increasing concentrations (1 ρM – 1 µM) of melatonin in the absence or presence of 10 µM or 1 µM of 7e or 7f. Other experimental details were as to the legend of Figure 4.
(§3) 2×10^5 cells were seeded into each well of 12-well plates for overnight before serum withdrawal for 4 h to reduce the basal ERK phosphorylation. Tested compounds were diluted in serum-free culture medium at desired concentrations and treated the cells for 5 min. Reactions was stopped by aspiration and then adding 150 µl of lysis buffer with protease inhibitors (50 mM Tris–HCl, pH 7.5, 100 mM NaCl, 5 mM EDTA, 40 mM NaP2O7, 1% Triton X-100, 1 mM dithiothreitol, 200 µM Na3VO4, 100 µM phenylmethylsulfonyl fluoride, 2 µg/ml leupeptin, 4 µg/ml aprotinin, and 0.7 µg/ml pepstain). Cells were allowed to lyse for 30 min at 4°C with agitation, and the collected total cell lysates were cleared by centrifugation. Protein samples were resolved in SDS-PAGE and transferred to nitrocellulose membranes using iBlot system (Invitrogen). Phosphorylated ERK was detected using specific antibodies as described previously. Chemiluminescence signals on the blots were detected on X-ray films.

Data set [2] deals with T1, MT1. Nature of the data set: Inhibition of forskolin-stimulated cAMP accumulation in MT1-CHO cells. The class given is cell-based. Further details: expressed in transfected cells. The procedure: (§4) Both MT1 and MT2 are classified as Gi-coupled receptors with their activation leading to inhibition of intracellular cAMP production. The ability of the tested compounds to activate the endogenously expressed Gi-mediated inhibition of cAMP production was therefore examined.
(§5) All the responses were expressed as the percentage of that induced by forskolin alone (as 100%).
(§6) 2×10^5 cells were seeded in each well of 12-well plates and grown for overnight. Each well was labeled with 1 ml of [^3H]adenine (1 µCi/ml) in F-12K medium containing 1% FBS (vol/vol) for overnight. The labeling media were then replaced by 1 ml of 20 mM HEPES-buffered F-12K containing 1 mM isobutylmethylxanthine (IBMX) and the tested compounds at desired concentrations, and incubated at 37°C for 30 min. The reaction was stopped by aspiration and adding 1 ml prechilled 5% trichloroacetic acid (w/v) with 1 mM ATP, and stored at 4°C for 30 min. [^3H]cAMP was extracted from the pool of labeled adenosine nucleotides by sequential ion-exchange chromatography as previously described. The radioactivity of labeled cAMP and total labeled nucleotide fractions separated by chromatography were estimated by scintillation counting. Inhibition curves were constructed by non-linear regression using GraphPad Prism 3.

The target of data set [3] is T2, MT2 (Homo sapiens, UniProt P49286).
T2 sequence (P49286 1-362): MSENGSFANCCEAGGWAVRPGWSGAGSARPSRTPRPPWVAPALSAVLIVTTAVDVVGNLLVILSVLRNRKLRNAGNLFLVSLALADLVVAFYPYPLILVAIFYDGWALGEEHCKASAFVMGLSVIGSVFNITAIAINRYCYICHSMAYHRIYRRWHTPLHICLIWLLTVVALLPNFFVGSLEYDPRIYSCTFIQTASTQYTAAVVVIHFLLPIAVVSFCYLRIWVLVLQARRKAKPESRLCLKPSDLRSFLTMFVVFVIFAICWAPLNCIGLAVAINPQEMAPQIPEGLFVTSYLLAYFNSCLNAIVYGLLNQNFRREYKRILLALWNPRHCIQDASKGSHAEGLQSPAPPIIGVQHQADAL
The data set is described as follows: Inhibition of forskolin-stimulated cAMP accumulation in MT2-CHO cells. The class given is cell-based. Also on record: expressed in transfected cells. The procedure: as §4, §5, §6
(In general: Changes in cAMP serve as a functional read-out for many G protein-coupled receptors.)

Data set [4] addresses T2, MT2.
Description: (§8) Competitive receptor binding characteristics of melatonin and the 15 tested compounds towards human MT1 and MT2 stably expressed in Chinese hamster ovary (CHO) cells were determined using intact cell preparation pre-incubated with 1 nM [^3H]melatonin.
(§9) Individual melatonin receptor subtype (either MT1 or MT2) was stably co-expressed with a G protein chimera 16z25 in Chinese hamster ovary (CHO) cells, hereafter denoted as CHO-hMT1 and CHO-hMT2, respectively. […] Single cell-derived colonies of the stable lines with sufficiently high receptor density and robust responses in the fluorometric assay (as described below) were isolated from the pool of transfected cell. Usage of these clonal lines was limited to 15 passages to prevent degradation of signal detection.
(§10) Competitive binding assays were performed as described [26]. Cells were suspended in binding buffer (50 mM Tris, 2 mM MgCl2, 1 mM EGTA, pH 7.4) in the density of 1.5×10^5 cell/ml. 1 nM [^3H]melatonin and increasing concentrations of a tested compound was included. Cells were incubated at 4°C for 60 min with intermittent agitation and the reaction was stopped by rapid filtration through GF/C filters pre-soaked in 10 mM Tris, pH 7.4 and washed with 1 ml of prechilled binding buffer. Retained radioactivity was measured with Wallac 1450 Microbeta Jet scintillation counter. Competition curves were drawn as one-site competition nonlinear regression model using GraphPad Prism 3.03 to the data which were means ± SEM of 3–4 independent experiments performed in duplicates. In every assay, melatonin was included as standard reference with highly reproducible Ki values, which were calculated using the Cheng-Prusoff equation.
Data set [5] addresses T1, MT1. The data set is described as follows: Intracellular Ca2+ mobilization (FLIPR) in MT1-CHO cells co-expressing 16z25. The class given is cell-based. Further details: expressed in transfected cells. The procedure:
(§7) Tested compounds in different concentrations were diluted in assay buffer in 5× of the final desired concentrations in a V-bottomed microplate, and both the cell and compound plates were put into the fluorometric imaging plate reader FLIPR^TETRA (Molecular Devices, Sunnyvale, CA). […] The peak of the time course of fluorescence changes was expressed in relative fluorescence units (RFU). Dose response curves were constructed by non-linear regression using GraphPad Prism 3.
On the technique in general: Calcium assays in cells follow changes in intracellular calcium, usually with a dye or a luminescent sensor.

Data set [6] deals with T2, MT2. Nature of the data set: biochemical. The settings on record: for Ki: MT2 Ki, calculated from mean pIC50 (Cheng-Prusoff), 1 nM [3H]melatonin, intact CHO cells.
Description: as §8, §9, §10
In data set [7] the target is T1, MT1. The data set is described as follows: biochemical.
Description: as §8, §9, §10
Data set [8] addresses T2, MT2. The data set is described as follows: Intracellular Ca2+ mobilization (FLIPR) in MT2-CHO cells co-expressing 16z25. Type of data set: cell-based. Also on record: expressed in transfected cells. The procedure:
as §7

The target in data set [9] is T2, MT2. Nature of the data set: Immunodetection of ERK phosphorylation in MT2-CHO cells. The class given is cell-based. Further details: expressed in transfected cells. As for the experimental part: as §1, §2, §3
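For Selectivity, ratio Ki(MT1)/Ki(MT2) in this document: competition binding on intact CHO cells stably co-expressing human MT2 with G protein chimera 16z25, displacing [3H]melatonin at 4°C over 60 min, melatonin run as reference.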
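For displacement of pre-incubated [3H]melatonin at MT2 (in words) in this document: competition binding on intact CHO cells stably co-expressing human MT2 with G protein chimera 16z25, displacing [3H]melatonin at 4°C over 60 min, melatonin run as reference.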

T1 sequence (P48039 whole entry): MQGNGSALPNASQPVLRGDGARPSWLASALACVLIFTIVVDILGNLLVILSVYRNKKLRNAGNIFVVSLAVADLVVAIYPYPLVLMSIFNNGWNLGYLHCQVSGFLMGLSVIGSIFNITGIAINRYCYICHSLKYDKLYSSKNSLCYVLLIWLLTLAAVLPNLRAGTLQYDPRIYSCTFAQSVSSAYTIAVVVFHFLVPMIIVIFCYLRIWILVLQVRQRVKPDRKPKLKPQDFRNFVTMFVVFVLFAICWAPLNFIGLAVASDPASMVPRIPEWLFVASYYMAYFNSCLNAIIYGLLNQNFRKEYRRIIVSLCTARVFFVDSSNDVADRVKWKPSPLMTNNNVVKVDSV

One may read the Ki as a dissociation constant, usually derived from enzyme kinetics or from competition with a known ligand. What is called melting point is the temperature, or range, at which the solid turns liquid. The compound `COc1cccc(COc2cc3ccn(C)c(=O)c3cc2OC)c1` [7b, 7-Methoxy-6-(3-methoxy-benzyloxy)-2-methylisoquinolin-1(2H)-one] had a melting point of 85 to 87 °C. Further, the “concentration inducing weak ERK phosphorylation in MT1-CHO cells” value in [1] (immunoblot) was above 1 µM. For the same compound, in data set [2] (forskolin-stimulated), the “inhibition of cAMP levels in MT1-CHO cells (in words)” value is given as “observable inhibition”. For the same compound, in [2] (maximal percentage inhibition of the forskolin-elevated cAMP level, MT1-CHO), the “MT1 %Inhmax ±SEM” value amounted to 69±8%. The IC50 in [2] (read-out: MT1 IC50, inhibition of cAMP production) turned out to be 1200 nM. The IC50 in data set [3] (MT2-CHO cells, 50 µM forskolin, mean ± SEM of 2 trials, read-out: MT2 pIC50 ±SEM, inhibition of cAMP production (converted)) is 63.1 nM. Also, the “MT2 %Inhmax ±SEM” value in data set [3] (maximal percentage inhibition of the forskolin-elevated cAMP level, MT2-CHO) was found to be 70±3%. The “Selectivity, ratio Ki(MT1)/Ki(MT2)” value in data set [4] (Ki(MT1)/Ki(MT2)) was determined as 139. The “displacement of pre-incubated [3H]melatonin at MT2 (in words)” value in data set [4] (competitive binding, intact CHO cells) is given as “completely displaced”. In data set [5], this compound registered an EC50 of 31.1 nM. For the same compound, the “MT1 %Resp ±SEM, Ca2+ signal” value in [5] (percentage of melatonin (MT)-mediated stimulation of Ca2+ signal) is 63±7%. In data set [6], the IC50 is 89.1 nM and the Ki was 26.6 nM. For the same compound, in data set [6] (read-out: MT2 %Resp±SEM (percentage of melatonin-mediated displacement of radioligand binding)), the Emax stood at 92 ± 4%. In addition, in data set [7], the IC50 was 16200 nM and the affinity, expressed as Ki, was 3700 nM. Also, in [7] (read-out: MT1 %Resp±SEM (percentage of melatonin-mediated displacement of radioligand binding)), the Emax worked out at 90 ± 8%. For the same compound, in data set [8] (MT2-CHO cells, FLIPR, calculated from mean pEC50, NSR = no significant response for up to 30 µM, read-out: MT2 EC50, Ca2+ mobilization), the EC50 was 0.3 nM. Moreover, the EC50 in data set [8] (MT2-CHO cells, FLIPR, mean ± SEM of 3–5 trials, read-out: MT2 pEC50 ±SEM, Ca2+ mobilization (converted)) was 0.288 nM. Also, the Emax in data set [8] (MT2, percentage of melatonin (MT)-mediated stimulation of Ca2+ signal, read-out: MT2 %Resp ±SEM, Ca2+ signal) was 92 ± 11%.
As to `CC(=O)NCCc1c(Cc2ccccc2)[nH]c2ccccc12` [luzindole, reference compound], the “suppression of melatonin-induced ERK phosphorylation in MT1-CHO cells (antagonism)” value in [1] (1 nM melatonin (MLT)) was “blocked”. Moreover, the “effect on basal ERK phosphorylation in MT1-CHO cells” value in data set [1] (at 1 µM) was “completely eliminated basal ERK phosphorylation”. Further, the Ki in data set [6] is 2.9 nM; in data set [7], 102 nM. Also, the “suppression of melatonin-induced ERK phosphorylation in MT2-CHO cells (antagonism)” value in data set [9] (1 nM melatonin (MLT), 7e and 7f at 10 µM) is recorded as “blocked”. The “suppression of 7b-induced ERK phosphorylation in MT2-CHO cells (antagonism)” value in data set [9] (agonist 7b 100 nM, 7e at 10 µM) is reported as “blocked”. Moreover, in data set [9] (luzindole alone), the “effect on basal ERK phosphorylation in MT2-CHO cells” value is reported as “constantly enhanced”. Moreover, in data set [8] (MT2-CHO cells, FLIPR), the “Ca2+ mobilization activity at MT2 (in words)” value is given as “weak but significant MT2-selective agonistic activity”.
